The record followed here is the supplement of paper PMC11061612.

For test [1], the system named is CAL-120 (Breast Carcinoma). As to the kind of experiment: Bliss excess, mean over the matrix (fraction); higher = more synergy. Summed up:
(§1)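 After 24 hours at 37°C and 5% CO2 in 1536-well plates, cells in DMEM/F12 or RPMI plus 10% FBS received two-drug dose matrices for 72 hours. Viability came from CellTiter-Glo 2.0 luminescence and was scaled as inhibition, anchored at 0 by vehicle wells and at 1 by blank wells. Combination Emax is taken as the second-highest inhibition in the matrix, and Bliss excess as the observed combination effect less EA + EB − EA·EB, with EA and EB the single-agent effects.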

For test [2], the system named is CAL-62 (Thyroid Gland Carcinoma). The test is described as above. The method in brief:
as §1

A further test deals with GB-1 (Glioblastoma). The test is described as above. The method in brief: as §1
Test [3] concerns GP5d (Colorectal Carcinoma). The test is described as above. Summed up: as §1
In the next test the test system is IST-MES1 (Mesothelioma). The description is as above. The method in brief:
as §1

Test [4] concerns LK-2 (Squamous Cell Lung Carcinoma). The test is described as above. Summed up: as §1
Test [5] deals with MFE-280 (Endometrial Carcinoma). The description is as above. The method in brief:
as §1

Test [6] has as its system NCI-H2342 (Lung Adenocarcinoma). The description is as above. Summed up: as §1
The subject of test [7] is OVMIU (Ovarian Carcinoma). The description is as above. The method in brief: as §1
The test system of test [8] is PSN1 (Pancreatic Carcinoma). The description is as above. Summed up: as §1
The subject of test [9] is REH (B-Lymphoblastic Leukemia). The test is described as above. The method in brief: as §1
The test system of the next test is SF268 (Low Grade Glioma). The test is described as above. The method in brief:
as §1

Test [10] has as its system SHP-77 (Small Cell Lung Carcinoma). Described as above. The method in brief: as §1
For test [11], the system named is SK-PN-DW (Other Solid Carcinomas). The test is described as above. The method in brief: as §1
The subject of test [12] is VAL (B-Cell Non-Hodgkin's Lymphoma). Described as above. The method in brief: as §1
In another test the test system is WM278 (Melanoma). Described as above. The method in brief: as §1
Test [13] has as its system HSC-39 (Gastric Carcinoma). As to the kind of experiment: combination Emax (second highest fraction inhibited in the dose matrix, 72 h); higher = more inhibition; extreme values may be limits of the assay. Summed up: as §1
For test [14], the system named is LXF-289 (Lung Adenocarcinoma). The description is as above. The method in brief: as §1
For test [15], the system named is RKN (Other Solid Carcinomas). The test is described as above. The method in brief: as §1
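Wherever Bliss excess, mean over the matrix is given: after 72 h of two-drug dosing.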

As for `CCN(CCO)CCCOc1ccc2c(Nc3cc(CC(=O)Nc4cccc(F)c4)[nH]n3)ncnc2c1` [AZD2811] + O=C(c1cc(Cc2n[nH]c(=O)c3ccccc23)ccc1F)N1CCN(C(=O)C2CC2)CC1 [Olaparib] (first compound max 1 µM, 7x7, partner max 10 µM), the Bliss excess is 0.0019 in test [1]; 0.0353 in test [2]; -0.0218 in the test on GB-1 (Glioblastoma); -0.0785 in test [3]; -0.0102 in the test with IST-MES1 (Mesothelioma); -0.0329 in test [4]. Moreover, the Bliss excess in test [5] is 0.0174; in test [6], -0.02; in [7] it was -0.0509; in test [8] it was -0.0206; in test [9], 0.0285; with SF268 (Low Grade Glioma), 0.0105. Moreover, the Bliss excess in [10] was -0.0191; in test [11] it was -0.0482; in test [12], -0.0246; in the test with WM278 (Melanoma), -0.0107. For the same molecule, the “combination Emax” value turned out to be 0.985 in test [13], 0.555 in [14] and 0.228 in test [15].
Consider `C[C@@H]1COCCN1c1cc(C2([S@](C)(=N)=O)CC2)nc(-c2ccnc3[nH]ccc23)n1` [AZD6738] + O=C(c1cc(Cc2n[nH]c(=O)c3ccccc23)ccc1F)N1CCN(C(=O)C2CC2)CC1 [Olaparib] (first compound max 10 µM, 7x7, partner max 10 µM), for which the Bliss excess in test [1] was 0.0364; in test [2], 0.0428; in the test with GB-1 (Glioblastoma) it was 0.012; in test [3], -0.0092; in the test with IST-MES1 (Mesothelioma), 0.0228; in test [4] it was 0.0091. Moreover, the Bliss excess in [5] is 0.0368; in test [6], -0.0089; in test [7] it was -0.0083; in [8] it was -0.0122; in test [9], 0.0021; in the test on SF268 (Low Grade Glioma) it was 0.0011. The Bliss excess was 0.0804 in test [10], 0.008 in test [11], -0.0708 in test [12] and -0.0488 in the test on WM278 (Melanoma). For the same molecule, the “combination Emax” value was 1 in [13], 0.516 in [14] and 0.228 in [15].
With `Cc1cc2ncnn2cc1Nc1ncc2c(n1)n(C1CCOCC1)c(=O)n2C` [AZD7648] + C=CCn1c(=O)c2cnc(Nc3ccc(N4CCN(C)CC4)cc3)nc2n1-c1cccc(C(C)(C)O)n1 [AZD1775] (first compound max 10 µM, partner max 1 µM), the Bliss excess in [1] is 0.0463; in [2] it was 0.0057; with GB-1 (Glioblastoma), 0.0089; in test [3] it was -0.0431; with IST-MES1 (Mesothelioma), -0.002; in test [4], -0.0018. The Bliss excess is -0.0406 in [5]; -0.0023 in [6]; 0.0747 in test [7]; -0.0577 in test [8]; -0.06 in [9]; 0.0296 with SF268 (Low Grade Glioma). Also, the Bliss excess in [10] was -0.0798; in test [11], -0.145; in test [12] it was -0.0919; in the test with WM278 (Melanoma), -0.027. The entries for the “combination Emax” value in test [13], in test [14] and in [15] were 0.936, 0.476 and 0.248, respectively.
`Cc1cc2ncnn2cc1Nc1ncc2c(n1)n(C1CCOCC1)c(=O)n2C` [AZD7648] + CCN(CCO)CCCOc1ccc2c(Nc3cc(CC(=O)Nc4cccc(F)c4)[nH]n3)ncnc2c1 [AZD2811] (first compound max 10 µM, 7x7, partner max 1 µM): the Bliss excess is -0.0528 in test [1]; 0.0427 in [2]; -0.0124 in the test on GB-1 (Glioblastoma); 0.0648 in test [3]; 0.0188 with IST-MES1 (Mesothelioma); -0.0328 in test [4]. In addition, the Bliss excess in test [5] is 0.019; in test [6], -0.0084; in [7], -0.0159; in [8], -0.0218; in test [9], -0.0541; in the test with SF268 (Low Grade Glioma) it was 0.0023. Besides, the Bliss excess in test [10] is -0.0244; in [11] it was 0.105; in test [12], -0.0799; in the test on WM278 (Melanoma), -0.0081. Further, the figures for the “combination Emax” value in test [13], in test [14] and in test [15] were 0.939, 0.395 and 0.211, respectively.
For the molecule `Cc1cc2ncnn2cc1Nc1ncc2c(n1)n(C1CCOCC1)c(=O)n2C` [AZD7648] + CN(C)CCCOc1ccc(-c2ccc3ncc4c(c3c2)n(C2CCOCC2)c(=O)n4C)cn1 [AZD0156] (first compound max 10 µM, 7x7, partner max 1 µM), the Bliss excess in test [1] was -0.0197; in test [2], 0.0145; in the test on GB-1 (Glioblastoma), -0.0089; in [3] it was -0.0119; with IST-MES1 (Mesothelioma), -0.0353; in [4] it was -0.0036. Besides, the Bliss excess in [5] was 0.0058; in [6], -0.0237; in [7] it was -0.0068; in [8], -0.0413; in test [9], -0.113; in the test on SF268 (Low Grade Glioma) it was 0.0098. Further, the Bliss excess in [10] is -0.0017; in test [11] it was 0.0349; in test [12], -0.0921; with WM278 (Melanoma), -0.0295. The “combination Emax” value was 0.215 in [13], 0.201 in test [14] and 0.194 in [15].
As for `Cc1cc2ncnn2cc1Nc1ncc2c(n1)n(C1CCOCC1)c(=O)n2C` [AZD7648] + C[C@@H]1COCCN1C2=NC(=NC(=C2)C3(CC3)[S@](=N)(=O)C)C4=C5C=CNC5=NC=C4 [AZD6738] (first compound max 10 µM, 7x7, partner max 10 µM), the Bliss excess in [1] was 0.0192; in [2], 0.0264; with GB-1 (Glioblastoma), -0.017; in test [3], -0.0401; with IST-MES1 (Mesothelioma), 0.0176; in test [4], 0.0147. Moreover, the Bliss excess in [5] was 0.0174; in [6], 0.0271; in test [7], 0.0527; in [8], -0.0939; in [9], -0.0088; in the test with SF268 (Low Grade Glioma), 0.0152. The Bliss excess in test [10] is -0.0139; in test [11], 0.0154; in [12], -0.0813; in the test on WM278 (Melanoma) it was 0.0112. For the same molecule, the “combination Emax” value in test [13] turned out to be 1; in test [14] it was 0.369; in test [15], 0.225.
For `Cc1cc2ncnn2cc1Nc1ncc2c(n1)n(C1CCOCC1)c(=O)n2C` [AZD7648] + O=C(c1cc(Cc2n[nH]c(=O)c3ccccc23)ccc1F)N1CCN(C(=O)C2CC2)CC1 [Olaparib] (first compound max 10 µM, 7x7, partner max 10 µM), the Bliss excess in [1] is -0.0322; in test [2] it was -0.03; in the test with GB-1 (Glioblastoma), -0.0227; in test [3], 0.0009; in the test with IST-MES1 (Mesothelioma) it was -0.0592; in test [4], -0.0584. Besides, the Bliss excess is -0.0011 in [5]; -0.0548 in [6]; -0.0945 in test [7]; -0.0315 in test [8]; -0.0373 in test [9]; -0.0274 in the test on SF268 (Low Grade Glioma). The Bliss excess in test [10] was -0.0585; in test [11] it was 0.0223; in [12], 0.0295; in the test on WM278 (Melanoma), -0.0309. Moreover, the “combination Emax” value in [13] stood at 0.267; in test [14], 0.177; in test [15], 0.189.
Consider `CCc1c2c(nc3ccc(O)cc13)-c1cc3c(c(=O)n1C2)COC(=O)[C@]3(O)CC` [SN-38] + O=C(c1cc(Cc2n[nH]c(=O)c3ccccc23)ccc1F)N1CCN(C(=O)C2CC2)CC1 [Olaparib] (first compound max 0.3 µM, 7x7, partner max 10 µM), for which the Bliss excess is 0.0417 in [1]; 0.0139 in [2]; 0.0539 in the test with GB-1 (Glioblastoma); 0.143 in [3]; -0.0582 in the test on IST-MES1 (Mesothelioma); 0.128 in [4]. The Bliss excess was found to be 0.0167 in test [5]; 0.0154 in test [6]; 0.0409 in test [7]; 0.0329 in [8]; 0.0473 in [9]; 0.0235 in [10]. Besides, the Bliss excess stood at 0.0708 in [11], 0.036 in [12] and 0.0486 in the test with WM278 (Melanoma). Further, the entries for the “combination Emax” value in [13] and in test [15] were 0.887 and 0.651, respectively.
